In patent US20260297092A1, “PYRAZOLOPYRIMIDINE DERIVATIVES AS INHIBITORS OF NLRP3” (Takeda Pharmaceutical Company Limited, priority 2023, published 2026) one finds inhibition and IC50 data, which are given here for 29 compounds.

Where only a bound is given, the exact number is not on record here.

The test system of test [1] is NLRP3 inflammasome (IL-1β production in THP-1 cells). Put plainly: IL-1β TR-FRET Assay (percentage of inhibition at 300 nM, 6 μM or 10 μM). It counts as cell-based, human. The note with it: Homo sapiens, LPS priming, ATP activation; for inhibition at 0.3 µM: THP-1, 300 nM, read-out: IL-1β inhibitory rate at 300 nM (%). Put shortly: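 Percent inhibition of IL-1β used DMSO wells as 0% and 3 μM MCC-950 wells as full inhibition, with supernatant read by HTRF. Beforehand, IFN-γ-differentiated (25 ng/mL, 24 h), LPS-primed (50 ng/mL, 24 h) THP-1 cells received compound 30 min before inflammasome activation by 20 mM ATP for 2 h.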
On the technique in general: In TR-FRET formats the signal depends on donor and acceptor labels being close together.

In test [2] the test system is TNF-α (NF-κB pathway, THP-1 cells). Nature of the test: TNF-α Assay (IC50). The test is classed as cell-based, human. The following applies: Homo sapiens, 600 ng/mL LPS, 3 hours. Put shortly:
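Supernatant TNF-α quantified by ELISA after 3 h stimulation with 600 ng/mL LPS at 37 °C, following 30 min compound preincubation. Cells: IFN-differentiated (25 ng/mL, 24 h) THP-1 macrophages, 40,000/well, serum-free. IC50 by sigmoidal fit of % inhibition, with TPCA-1 as 100% control.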

By IC50 is commonly meant the concentration needed to halve the response being measured. Read a low IC50 as higher potency. Regarding `CCOc1nc2nn(-c3c(C)cc(OC(F)F)cc3C)cc2c(=O)[nH]1` [Example 147, 2-[4-(difluoromethoxy)-2,6-dimethylphenyl]-6-ethoxy-2,5-dihydro-4H-pyrazolo[3,4-d]pyrimidin-4-one], the inhibition at 0.3 µM in test [1] was 103%. This compound registered an IC50 in test [2] greater than 30 µM.
On the same counts, the results for `CCOc1nc2nn(-c3ncc(Br)cc3C(F)(F)F)cc2c(=O)[nH]1` [Example 148, 2-[5-bromo-3-(trifluoromethyl)pyridin-2-yl]-6-ethoxy-2,5-dihydro-4H-pyrazolo[3,4-d]pyrimidin-4-one] are 96% and greater than 30 µM.
The matching figures for `CCOc1nc2nn(-c3ncc(Br)cc3C)cc2c(=O)[nH]1` [Example 150, 2-(5-bromo-3-methylpyridin-2-yl)-6-ethoxy-2,5-dihydro-4H-pyrazolo[3,4-d]pyrimidin-4-one]: 70% and greater than 30 µM.
The matching figures for `CCOc1nc2nn(-c3c(C)cc(C4CC4)cc3Br)cc2c(=O)[nH]1` [Example 151, 2-(2-bromo-4-cyclopropyl-6-methylphenyl)-6-ethoxy-2,5-dihydro-4H-pyrazolo[3,4-d]pyrimidin-4-one]: 98% and greater than 30 µM.
With `CCOc1nc2nn(-c3c(C)cc(C)cc3C#N)cc2c(=O)[nH]1` [Example 152, 2-(6-ethoxy-4-oxo-4,5-dihydro-2H-pyrazolo[3,4-d]pyrimidin-2-yl)-3,5-dimethylbenzonitrile], the inhibition at 0.3 µM in test [1] turned out to be 92%. In test [2], this compound yielded an IC50 greater than 30 µM.
On the same counts, the results for `CCOc1nc2nn(-c3ncc(C4CC4)cc3C(F)(F)F)cc2c(=O)[nH]1` [Example 153, 2-[5-cyclopropyl-3-(trifluoromethyl)pyridin-2-y]-6-ethoxy-2,5-dihydro-4H-pyrazolo[3,4-d]pyrimidin-4-one] are 101% and greater than 30 µM.
The matching figures for `CCOc1nc2nn(-c3ncc(C4CC4)cc3C)cc2c(=O)[nH]1` [Example 154, 2-(5-cyclopropyl-3-methylpyridin-2-yl)-6-ethoxy-2,5-dihydro-4H-pyrazolo[3,4-d]pyrimidin-4-one]: 93% and greater than 30 µM.
On the same counts, the results for `CCOc1nc2nn(-c3c(Br)cc(C4CC4)cc3COC)cc2c(=O)[nH]1` [Example 155, 2-[2-bromo-4-cyclopropyl-6-(methoxymethyl)phenyl]-6-ethoxy-2,5-dihydro-4H-pyrazolo[3,4-d]pyrimidin-4-one] are 99% and greater than 30 µM.
As to `CCOc1nc2nn(-c3c(C)cc(CC(F)(F)F)cc3F)cc2c(=O)[nH]1` [Example 156, 6-ethoxy-2-[2-fluoro-6-methyl-4-(2,2,2-trifluoroethyl)phenyl]-2,5-dihydro-4H-pyrazolo[3,4-d]pyrimidin-4-one], the inhibition at 10 µM in test [1] (THP-1, 10 μM, read-out: IL-1β inhibitory rate at 10 μM (%)) is 97%. In test [2], this compound came in with an IC50 greater than 30 µM.
With `CCOc1nc2nn(-c3c(F)cc(OC)cc3Br)cc2c(=O)[nH]1` [Example 157, 2-(2-bromo-6-fluoro-4-methoxyphenyl)-6-ethoxy-2,5-dihydro-4H-pyrazolo[3,4-d]pyrimidin-4-one], the inhibition at 0.3 µM in test [1] is 102%. In test [2], this compound displayed an IC50 greater than 30 µM.
The matching figures for `CCOc1cc(F)c(-n2cc3c(=O)[nH]c(OCC)nc3n2)c(Br)c1` [Example 158, 2-(2-bromo-4-ethoxy-6-fluorophenyl)-6-ethoxy-2,5-dihydro-4H-pyrazolo [3,4-d]pyrimidin-4-one]: 99% and greater than 30 µM.
The matching figures for `CCOc1nc2nn(-c3c(C)cc(C)cc3C(F)F)cc2c(=O)[nH]1` [Example 159, 2-[2-(difluoromethyl)-4,6-dimethylphenyl]-6-ethoxy-2,5-dihydro-4H-pyrazolo[3,4-d]pyrimidin-4-one]: 103% and greater than 30 µM.
On the same counts, the results for `CCOc1cc(C)c(-n2cc3c(=O)[nH]c(OCC)nc3n2)c(F)c1` [Example 160, 6-ethoxy-2-(4-ethoxy-2-fluoro-6-methylphenyl)-2,5-dihydro-4H-pyrazolo[3,4-d]pyrimidin-4-one] are 84% and greater than 30 µM.
Take `CCOc1nc2nn(-c3ncc(Br)cc3Br)cc2c(=O)[nH]1` [Example 161, 2-(3,5-dibromopyridin-2-yl)-6-ethoxy-2,5-dihydro-4H-pyrazolo[3,4-d]pyrimidin-4-one]: the inhibition at 0.3 µM in test [1] came out at 97%. The compound further displayed an IC50 in test [2] greater than 30 µM.
The matching figures for `CCOc1nc2nn(-c3c(F)cc(OC)cc3CC(F)(F)F)cc2c(=O)[nH]1` [Example 162, 6-ethoxy-2-[2-fluoro-4-methoxy-6-(2,2,2-trifluoroethyl)phenyl]-2,5-dihydro-4H-pyrazolo[3,4-d]pyrimidin-4-one]: 97% and greater than 30 µM.
The matching figures for `CCOc1nc2nn(-c3c(F)cc(OC(F)F)cc3C(F)F)cc2c(=O)[nH]1` [Example 163, 2-[4-(difluoromethoxy)-2-(difluoromethyl)-6-fluorophenyl]-6-ethoxy-2,5-dihydro-4H-pyrazolo[3,4-d]pyrimidin-4-one]: 97% and greater than 30 µM.
On the same counts, the results for `CCOc1nc2nn(-c3c(C)cc(C4CC4)cc3COC)cc2c(=O)[nH]1` [Example 164, 2-[4-cyclopropyl-2-(methoxymethyl)-6-methylphenyl]-6-ethoxy-2,5-dihydro-4H-pyrazolo[3,4-d]pyrimidin-4-one] are 95% and greater than 30 µM.
As to `COCc1nc2nn(-c3c(C)cc(C4CC4)cc3C)cc2c(=O)[nH]1` [Example 166, 2-(4-cyclopropyl-2,6-dimethylphenyl)-6-(methoxymethyl)-2,5-dihydro-4H-pyrazolo[3,4-d]pyrimidin-4-one], the inhibition at 0.3 µM in test [1] turned out to be 103%. In addition, the IC50 in test [2] is greater than 30 µM.
On the same counts, the results for `Cc1cc(C2CC2)cc(C)c1-n1cc2c(=O)[nH]c(C3CC3)nc2n1` [Example 167, 6-cyclopropyl-2-(4-cyclopropyl-2,6-dimethylphenyl)-2,5-dihydro-4H-pyrazolo[3,4-d]pyrimidin-4-one] are 98% and greater than 30 µM.
On the same counts, the results for `CCOc1nc2nn(-c3c(C)cc(OC(F)F)cc3CC(F)(F)F)cc2c(=O)[nH]1` [Example 168, 2-[4-(difluoromethoxy)-2-methyl-6-(2,2,2-trifluoroethyl)phenyl]-6-ethoxy-2,5-dihydro-4H-pyrazolo[3,4-d]pyrimidin-4-one] are 98% and greater than 30 µM.
On the same counts, the results for `Cc1cc(C2CC2)cc(C)c1-n1cc2c(=O)[nH]c(-c3ccncn3)nc2n1` [Example 171, 2-(4-cyclopropyl-2,6-dimethylphenyl)-6-(pyrimidin-4-yl)-2,5-dihydro-4H-pyrazolo[3,4-d]pyrimidin-4-one] are 100% and greater than 30 µM.
Take `O=c1[nH]c(C2CC2)nc2nn(-c3c(F)cc(C4CC4)cc3C(F)F)cc12` [Example 173, 6-cyclopropyl-2-[4-cyclopropyl-2-(difluoromethyl)-6-fluorophenyl]-2,5-dihydro-4H-pyrazolo[3,4-d]pyrimidin-4-one]: in test [1], the inhibition at 0.3 µM is 108%. Also, in test [2], the IC50 was greater than 30 µM.
On the same counts, the results for `COCCOc1nc2nn(-c3c(C)cc(Br)cc3C)cc2c(=O)[nH]1` [Example 175, 2-(4-bromo-2,6-dimethylphenyl)-6-(2-methoxyethoxy)-2,5-dihydro-4H-pyrazolo[3,4-d]pyrimidin-4-one] are 112% and greater than 30 µM.
Take `Cc1ccc(-n2cc3c(=O)[nH]c(OC4CCOCC4)nc3n2)c(C)c1` [Example 176, 2-(2,4-dimethylphenyl)-6-[(oxan-4-yl)oxy]-2,5-dihydro-4H-pyrazolo[3,4-d]pyrimidin-4-one]: in test [1], the inhibition at 0.3 µM was determined as 101%. Also, the IC50 in test [2] is greater than 30 µM.
The matching figures for `CCOc1nc2nn(-c3c(C)cc(C4CC4)cc3C#N)cc2c(=O)[nH]1` [Example 179, 5-cyclo propyl-2-(6-ethoxy-4-oxo-4,5-dihydro-2H-pyrazolo[3,4-d]pyrimidin-2-yl)-3-methylbenzonitrile]: 102% and greater than 30 µM.
The matching figures for `CCOc1nc2nn(-c3c(C)cc(C4(F)CC4)cc3F)cc2c(=O)[nH]1` [Example 182, 6-ethoxy-2-[2-fluoro-4-(1-fluorocyclopropyl)-6-methylphenyl]-2,5-dihydro-4H-pyrazolo[3,4-d]pyrimidin-4-one]: 102% and greater than 30 µM.
On the same counts, the results for `CCOc1nc2nn(-c3c(Br)cc(OC(F)F)cc3C(F)F)cc2c(=O)[nH]1` [Example 184, 2-[2-bromo-4-(difluoromethoxy)-6-(difluoromethyl)phenyl]-6-ethoxy-2,5-dihydro-4H-pyrazolo[3,4-d]pyrimidin-4-one] are 94% and greater than 30 µM.
For the compound `COCCOc1nc2nn(-c3c(F)cc(C4CC4)cc3C(F)F)cc2c(=O)[nH]1` [Example 186, 2-[4-cyclopropyl-2-(difluoromethyl)-6-fluorophenyl]-6-(2-methoxyethoxy)-2,5-dihydro-4H-pyrazolo[3,4-d]pyrimidin-4-one], the inhibition at 0.3 µM in test [1] is 100%. The compound also came in with an IC50 in test [2] greater than 30 µM.
On the same counts, the results for `Cc1cc(C2CC2)cc(C)c1-n1cc2c(=O)[nH]c(C3(F)CC3)nc2n1` [Example 190, 2-(4-cyclopropyl-2,6-dimethylphenyl)-6-(1-fluorocyclopropyl)-2,5-dihydro-4H-pyrazolo[3,4-d]pyrimidin-4-one] are 97% and greater than 30 µM.
